Assay: xn = mol fraction of the nth substance listed
Details: 101 kPa

CNc1ccccc1 + CCCC[n+]1ccn(C)c1.F[B-](F)(F)F
speed of sound [m/s]
Details	x1 = 0.0974	x1 = 0.2093	x1 = 0.2979	x1 = 0.3968	x1 = 0.5009	x1 = 0.592	x1 = 0.697	x1 = 0.7972	x1 = 0.8999	x1 = 1
293.15 K	1578.7	–	–	1584.9	–	1594.9	1602.1	1601.6	1594.2	1582.7
303.15 K	1554.2	–	–	1560.6	1562	1566.3	1571.4	1570	1559.5	–
313.15 K	–	1531.6	1532.2	1534.8	–	1537.9	1540.1	1537.7	1524.9	1511.6
323.15 K	1507.2	1507.9	1508.4	1509.7	1510.5	–	–	1504.7	–	1476.4

CCCC[n+]1ccn(C)c1.F[B-](F)(F)F + CNc1ccccc1
x2 = 0
Details	speed of sound [m/s]
293.15 K	1577.5
303.15 K	1553.1
313.15 K	1529.6
323.15 K	1506.8
